Test results: patent US9981959B2, “Thiazolyl and oxazolyl urea, thiourea, guanidine and cyanoguanidine compounds as TrkA kinase inhibitors” (Array BioPharma Inc., priority 2012, dated 2018)

Biological target: TrkA (Homo sapiens, UniProt P04629)
Assay: TrkA LanthaScreen Eu Kinase Binding Assay
Set-up: 6HIS tagged cytoplasmic domain from Invitrogen, Cat. No. PV3144; purchased Invitrogen PV3144
Conditions: averaged IC50; TR-FRET binding, 60 min, 22° C.; read-out: TrkA enzyme IC50
Method: TrkA binding activity was determined in a TrkA LanthaScreen™ Eu Kinase Binding Assay. 5 nM His-tagged recombinant human TrkA (6HIS tagged cytoplasmic domain from Invitrogen, Cat. No. PV3144) was incubated with 4 nM Alexa-Fluor® Tracer 236 (Invitrogen Cat. No. PV5592), 2 nM biotinylated anti-His (Invitrogen Cat. No. PV6090), and 2 nM europium-labeled Streptavidin (Invitrogen Cat. No. PV5899), in buffer (25 mM MOPS, pH 7.5, 5 mM MgCl2, 0.005% Triton X-100). Three fold serial dilutions of compounds of the invention in DMSO were added to a final percentage of 2% DMSO. After 60-minute incubation at 22° C., the reaction was measured using the EnVision mutlimode plate reader (PerkinElmer) via TR-FRET dual wavelength detection at […]. The percent of control was calculated using a ratiometric emission factor. The IC50 values were determined by fitting a four parameter model to the percent of control data.
Table A provides averaged IC50 values for compounds of the invention when tested in the assay of Example A, where A represents an averaged IC50 value <100 nM; and B represents an averaged IC50 value from 100 to 1,000 nM.

Sequence of TrkA (P04629 440-796 limits assumed): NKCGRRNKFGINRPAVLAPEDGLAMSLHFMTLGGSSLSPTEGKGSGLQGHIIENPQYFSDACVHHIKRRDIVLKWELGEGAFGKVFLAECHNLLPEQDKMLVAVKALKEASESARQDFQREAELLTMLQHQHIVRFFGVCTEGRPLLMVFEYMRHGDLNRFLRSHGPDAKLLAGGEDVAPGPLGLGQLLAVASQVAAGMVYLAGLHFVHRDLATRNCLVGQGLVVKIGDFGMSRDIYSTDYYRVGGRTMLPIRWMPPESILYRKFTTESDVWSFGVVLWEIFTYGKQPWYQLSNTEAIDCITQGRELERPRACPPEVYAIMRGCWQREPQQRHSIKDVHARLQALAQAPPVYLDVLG

IC50	SMILES
< 100 nM	Cc1nc(-c2ccccc2)c(NC(=O)Nc2c(C)c(-c3cnn(C)c3)nn2-c2ccccc2)s1 [Example 1, 1-(1′,4-dimethyl-1-phenyl-1H,1′H-[3,4′-bipyrazol]-5-yl)-3-(2-methyl-4-phenylthiazol-5-yl)urea]
100 to 1000 nM	Cc1nc(-c2ccccc2)c(NC(=O)Nc2c(C)c(-c3cnn(C)c3)nn2-c2ccccc2)o1 [Example 3, 1-(1′,4-dimethyl-1-phenyl-1H, 1′H-[3,4′-bipyrazol]-5-yl)-3-(2-methyl-4-phenyloxazol-5-yl)urea]
100 to 1000 nM	Cc1c(C(N)=O)nn(-c2ccccc2)c1NC(=O)Nc1sc(C(F)(F)F)nc1-c1ccccc1 [Example 4, 4-methyl-1-phenyl-5-(3-(4-phenyl-2-(trifluoromethyl)thiazol-5-yl)ureido)-1H-pyrazole-3-carboxamide]
< 100 nM	Cc1c(OCCO)nn(-c2ccccc2)c1NC(=O)Nc1sc(C(F)(F)F)nc1-c1ccccc1 [Example 5, 1-(3-(2-hydroxyethoxy)-4-methyl-1-phenyl-1H-pyrazol-5-yl)-3-(4-phenyl-2-(trifluoromethyl)thiazol-5-yl)urea]
